From publication PMC10600239, “Selective MCL-1 inhibitor ABBV-467 is efficacious in tumor models but is associated with cardiac troponin increases in patients” (Communications Medicine, 2023)

Test system: AMO-1 xenografts
Assay: AMO-1 xenograft efficacy (tumor volume, body weight)
Assay type: in vivo, mouse
Conditions: mice, 25 mg/kg on a Q7D × 2 schedule
Method: All animal studies were conducted in accordance with the guidelines approved by the Institutional Animal Care and Use Committees of AbbVie. The research protocol was approved by In Vivo Pharmacology at AbbVie prior to study initiation but was not publicly registered or disclosed. Female C.B-17 SCID-beige mice (AMO-1, OPM-2, NCI-H929, and OCI-AML2 xenografts) and female NSG mice (MV4-11-Red.Fluc systemic) were purchased from Charles River Laboratories (Wilmington, MA). Animals were housed in a light cycle-controlled room with HEPA filtration at 22 °C. Animals had nesting and climbing cage topper as the primary environmental enrichment. Animals were inoculated subcutaneously in the right flank with 5 × 10^6 (AMO-1, OPM-2, NCI-H929, and OCI-AML2) or intravenous (IV) with 5 × 10^6 (MV4-11-Red.Fluc). The inoculation volume (0.2 mL) comprised a 50:50 mixture of cells in growth media and Matrigel (BD Biosciences) for subcutaneous injections and 100% phosphate-buffered saline for IV administration. All cell lines used in this publication were authenticated using IDEXX for STR profiling as well as their IMPACT and human IMPACT panels for pathogen screening. Electronic calipers were used to measure the length and width of each tumor 2 to 3 times per week. Tumor volume was estimated by applying the following equation: volume = length × width^2/2. All groups remained blinded during measurements and dosing; only veterinary staff were aware of group identity. When tumors reached approximately 200 mm^3, mice were randomized by match and distributed into treatment and control groups. All xenograft trials were conducted using 5 to 10 mice per group, and all mice were ear tagged and monitored individually throughout the studies. […] Tumor burden in the systemic MV4-11-Red.Fluc experiment was measured using an IVIS® spectrum from PerkinElmer by taking the total photon flux of the entire dorsal side of an individual mouse. […] A background control mouse that was tumor naive but received D-Luciferin was placed in the upper left corner of each image. The total flux from this animal was subtracted from the total flux of each animal present in the image.
For in vivo studies, maximal tumor growth inhibition (TGI) was calculated as the greatest treatment response using the following equation: Maximal TGI = (1 − mean tumor volume of the treated group/mean tumor volume of the vehicle control group) × 100. The tumor growth delay (TGD) percentage was determined as the percentage increase of the median time period for the treatment group to reach an arbitrary tumor volume of 1000 mm^3 relative to the vehicle control group. […] A power analysis was conducted using historical data to determine the number of animals required to yield significance of 0.05 at a 30% difference. […] Data from experiments in vivo were analyzed using the student’s t-test for TGI values and the Mann–Whitney U test for TGD using Excel and GraphPad Prism. Fisher’s exact test was used to probe significance of differences in response frequency.

Cc1c(Cl)c2c(Cl)c(C)c1-c1c(-c3ccc(F)cc3)sc3ncnc(c13)O[C@@H](C(=O)O)Cc1cc(ccc1OCc1ccnc(-c3ccc(OC[C@H]4COCCO4)cc3)n1)OC[C@@H](CN1CCN(C)CC1)O2 [ABBV-467]
tolerability: not well-tolerated
